Drawing on ChEMBL document CHEMBL2303647, “Data associated with the publication PLoS ONE, 8(3), e57888, (2013) PMID: 23505445. Compounds: GSK PKIS; Assays: NIH NCATS”, this text covers AC50 for 47 compounds.

As a reminder, the AC50 is the concentration at which the activity in the assay is half-maximal.

Assay [1] concerns the target T1, Coelenterazine h 2-monooxygenase (Renilla reniformis, UniProt P27652).
T1 sequence (P27652 whole entry): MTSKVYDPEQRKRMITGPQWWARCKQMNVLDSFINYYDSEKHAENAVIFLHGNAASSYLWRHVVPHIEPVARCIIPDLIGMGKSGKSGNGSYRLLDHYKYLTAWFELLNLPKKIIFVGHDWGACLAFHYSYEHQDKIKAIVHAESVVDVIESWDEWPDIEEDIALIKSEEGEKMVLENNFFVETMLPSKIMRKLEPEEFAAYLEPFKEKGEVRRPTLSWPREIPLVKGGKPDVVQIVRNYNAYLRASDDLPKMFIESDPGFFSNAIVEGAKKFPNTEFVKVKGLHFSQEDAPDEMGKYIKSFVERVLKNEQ
Description: GSK_PKIS: Inhibition of Sea Pansy Luciferase (Data from PubChem: AID 652015) [NIH NCATS]

Assay [2] deals with Luciferin 4-monooxygenase (Photinus pyralis, UniProt P08659).
Luciferin 4-monooxygenase, sequence (P08659 whole entry): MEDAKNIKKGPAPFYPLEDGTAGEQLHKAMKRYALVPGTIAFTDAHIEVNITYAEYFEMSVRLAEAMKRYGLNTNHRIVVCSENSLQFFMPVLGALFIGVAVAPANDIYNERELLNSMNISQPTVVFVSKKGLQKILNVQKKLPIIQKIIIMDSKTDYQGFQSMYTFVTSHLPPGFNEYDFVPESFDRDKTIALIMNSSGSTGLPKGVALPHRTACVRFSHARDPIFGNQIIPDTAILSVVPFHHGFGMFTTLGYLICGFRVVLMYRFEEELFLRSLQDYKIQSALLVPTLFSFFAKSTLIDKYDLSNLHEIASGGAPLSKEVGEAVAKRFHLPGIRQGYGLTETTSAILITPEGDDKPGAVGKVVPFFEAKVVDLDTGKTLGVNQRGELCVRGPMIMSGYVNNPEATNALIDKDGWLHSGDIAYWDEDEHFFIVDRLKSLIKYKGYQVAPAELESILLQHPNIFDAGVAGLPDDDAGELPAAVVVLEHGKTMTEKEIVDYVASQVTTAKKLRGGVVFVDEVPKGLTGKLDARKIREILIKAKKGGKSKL
Description: GSK_PKIS: Inhibition of Firefly Luciferase (Data from PubChem: AID 652016) [NIH NCATS]

As to `O=C(Nc1n[nH]c2nc(-c3ccco3)ccc12)C1CC1`, the AC50 result in assay [1] and in assay [2] was “Phenotype: Inactive; Curve_Description: None” in each case.

`Fc1ccc(-c2ncn(C3CCNCC3)c2-c2ccnc(Oc3ccc(Oc4ccccc4)cc3)n2)cc1`: the AC50 in assay [1] (read-out: AC50) is 20.6 µM; in assay [2], “Phenotype: Inactive; Curve_Description: None”.

Turning to `N#Cc1ccc(Oc2nccc(-c3c(-c4ccc(F)cc4)ncn3C3CCNCC3)n2)cc1`, the AC50 entry in assay [1] and in assay [2] was “Phenotype: Inactive; Curve_Description: None” in each case.

In the case of `O=C1NC(=O)C(N2CCc3ccccc32)=C1c1ccc(Cl)cc1`, the values for the AC50 in assay [1] (read-out: AC50) and in assay [2] (read-out: AC50) were 20.6 µM and 6.51 µM, respectively.

Take `O=C1NC(=O)C(c2cccc(Cl)c2)=C1Nc1ccc(O)c(Cl)c1`: the results for the AC50 in assay [1] (read-out: AC50) and in assay [2] were 36.6 µM and “Phenotype: Inactive; Curve_Description: None”, respectively.

For `O=C1Nc2ccccc2/C1=C1\CCc2cc(O)ccc21`, the AC50 in assay [1] (read-out: AC50) stood at 20.6 µM; in assay [2] (read-out: AC50), 5.17 µM.

`NC(=O)Cc1ccccc1Oc1nccc(-c2c(-c3ccc(F)cc3)ncn2C2CCNCC2)n1`: the AC50 entry in assay [1] and in assay [2] was “Phenotype: Inactive; Curve_Description: None” in each case.

Regarding `Fc1ccc(-c2ncn(C3CCNCC3)c2-c2ccnc(Oc3ccc(F)c(F)c3)n2)cc1`, the AC50 entry in assay [1] and in assay [2] was “Phenotype: Inactive; Curve_Description: None” each time.

`Nc1nonc1-c1nc2cnccc2n1C1CC1`: the AC50 result in assay [1] and in assay [2] was “Phenotype: Inactive; Curve_Description: None” in each case.

For `NCc1ccc(-n2c(-c3nonc3N)nc3cnccc32)cc1`, the AC50 in assay [1] (read-out: AC50) was 41.1 µM; in assay [2] it was “Phenotype: Inactive; Curve_Description: None”.

As for `Nc1nonc1-c1nc2cnccc2n1C1CCCCC1`, the half-maximal activity concentration (AC50) result in assay [1] and in assay [2] was “Phenotype: Inactive; Curve_Description: None” throughout.

`N#Cc1c(NC(=O)CN2CCOCC2)sc2c1CCCC2.O=C(O)C(=O)O`: the AC50 result in assay [1] and in assay [2] was “Phenotype: Inactive; Curve_Description: None” in each case.

Regarding `CN1CCC(C(=O)Nc2n[nH]c3nnc(-c4ccccc4)cc23)CC1.Cl`, the half-maximal activity concentration (AC50) entry in assay [1] and in assay [2] was “Phenotype: Inactive; Curve_Description: None” throughout.

For the compound `CN1CCC(C(=O)Nc2n[nH]c3nc(-c4ccc(O)cc4)c(Br)cc23)CC1.O=C(O)/C=C\C(=O)O`, the AC50 entry in assay [1] and in assay [2] was “Phenotype: Inactive; Curve_Description: None” each time.

Regarding `CCn1c(-c2nonc2N)nc2cncc(C(=O)N3CCNCC3)c21.Cl`, the AC50 result in assay [1] is given as “Phenotype: Activator; Curve_Description: None”; in assay [2] it was “Phenotype: Inactive; Curve_Description: None”.

`c1ccc(Cc2nc3ccc(Nc4ncnc5ccccc45)cc3[nH]2)cc1`: the AC50 in assay [1] (read-out: AC50) amounted to 18.3 µM; in assay [2] (read-out: AC50), 16.3 µM.

As for `COc1ccc2ncnc(Nc3ccc(OCc4ccccc4)cc3)c2c1.Cl`, the AC50 is 0.0007 µM in assay [1] (read-out: AC50) and “Phenotype: Inactive; Curve_Description: None” in assay [2].

As to `Cl.Oc1cccc(-c2nc(-c3ccccc3)[nH]c2-c2ccncc2)c1`, the half-maximal activity concentration (AC50) in assay [1] (read-out: AC50) is 23.1 µM; in assay [2] it was “Phenotype: Inactive; Curve_Description: None”.

On to `CN(C)CCOc1ccc(-c2nc(-c3ccncc3)c(-c3ccc4c(c3)CC/C4=N\O)[nH]2)cc1`, for which the AC50 in assay [1] (read-out: AC50) worked out at 29.1 µM; in assay [2] (read-out: AC50), 14.6 µM.

As for `CCN1CCC(CC(=O)Nc2n[nH]c3nnc(-c4cccc(F)c4F)cc23)CC1.O=C(O)C(O)C(O)C(=O)O`, the AC50 entry in assay [1] was “Phenotype: Inactive; Curve_Description: None”; in assay [2] (read-out: AC50), 41.1 µM.

Consider `CCN1CCC(CC(=O)Nc2n[nH]c3nc(-c4cccs4)c(Br)cc23)CC1.O=C(O)C(O)C(O)C(=O)O`, for which the AC50 was 29.1 µM in assay [1] (read-out: AC50) and “Phenotype: Inactive; Curve_Description: None” in assay [2].

Take `COc1ccc2cc(-c3c(-c4ccncc4)nc(-c4ccc([S+](C)[O-])cc4C)n3C)ccc2c1` (centres undefined): the figures for the AC50 in assay [1] (read-out: AC50) and in assay [2] were 41.1 µM and “Phenotype: Inactive; Curve_Description: None”, respectively.

As to `CN1CCC(C(=O)Nc2n[nH]c3nc(-c4ccc(O)cc4)c(Br)cc23)CC1`, the figures for the AC50 in assay [1] (read-out: AC50) and in assay [2] were 32.6 µM and “Phenotype: Inactive; Curve_Description: None”, respectively.

Consider `OCc1ccc(-c2nc(-c3ccccn3)c(-c3ccc4c(c3)OCO4)[nH]2)cc1`, for which the AC50 was determined as 41.1 µM in assay [1] (read-out: AC50) and 18.3 µM in assay [2] (read-out: AC50).

Regarding `Fc1ccc(-c2ncn(C3CCNCC3)c2-c2ccnc(Oc3ccc4c(c3)OCO4)n2)cc1`, the values for the AC50 result in assay [1] and in assay [2] (read-out: AC50) were “Phenotype: Inactive; Curve_Description: None” and 32.6 µM, respectively.

In the case of `NC(=O)c1ccc(Oc2nccc(-c3c(-c4ccc(F)cc4)ncn3C3CCNCC3)n2)cc1`, the figures for the AC50 entry in assay [1] and in assay [2] (read-out: AC50) were “Phenotype: Inactive; Curve_Description: None” and 29.1 µM, respectively.

In the case of `Fc1ccc(-c2ncn(C3CCNCC3)c2-c2ccnc(Oc3ccccc3)n2)cc1`, the AC50 amounted to 18.3 µM in assay [1] (read-out: AC50) and 20.6 µM in assay [2] (read-out: AC50).

As for `COc1ccc(C2=C(N3CCc4ccccc43)C(=O)NC2=O)cc1`, the AC50 in assay [1] (read-out: AC50) is 20.6 µM; in assay [2] it was “Phenotype: Inactive; Curve_Description: None”.

Regarding `N#Cc1c(NC(=O)c2ccc(F)cc2)sc2c1CCCC2`, the figures for the AC50 entry in assay [1] and in assay [2] (read-out: AC50) were “Phenotype: Inactive; Curve_Description: None” and 0.919 µM, respectively.

Regarding `O=C(Nc1n[nH]c2cc(-c3ccccc3)ccc12)C1CC1`, the values for the AC50 entry in assay [1] and in assay [2] (read-out: AC50) were “Phenotype: Inactive; Curve_Description: None” and 18.3 µM, respectively.

`NS(=O)(=O)c1cccc(-c2ccc3c(NC(=O)C4CC4)n[nH]c3c2)c1`: the AC50 turned out to be 36.6 µM in assay [1] (read-out: AC50) and 20.6 µM in assay [2] (read-out: AC50).

Take `COc1ccc(-c2ccc3c(NC(=O)C4CC4)n[nH]c3n2)cc1`: the figures for the AC50 result in assay [1] and in assay [2] (read-out: AC50) were “Phenotype: Inactive; Curve_Description: None” and 2.31 µM, respectively.

As to `CCc1ccc(Oc2nccc(-c3c(-c4ccc(F)cc4)ncn3C3CCNCC3)n2)cc1`, the AC50 result in assay [1] and in assay [2] was “Phenotype: Inactive; Curve_Description: None” in each case.

As for `CC1=C(C(=O)Nc2ccc3[nH]ncc3c2)C(c2ccc(F)cc2)NC(=O)N1` (centres undefined) [GSK-180736A], the AC50 entry in assay [1] and in assay [2] was “Phenotype: Inactive; Curve_Description: None” throughout.

`CN(C)C(=O)O[C@H]1CN[C@H](C#Cc2cc3ncnc(Nc4ccc(OCc5cccc(F)c5)c(Cl)c4)c3s2)C1` [GSK-182497A]: the half-maximal activity concentration (AC50) entry was “Phenotype: Inactive; Curve_Description: None” in assay [1] and 29.1 µM in assay [2] (read-out: AC50).

As for `CCNC(=O)O[C@H]1CN[C@H](C#Cc2cc3ncnc(Nc4ccc(OCc5cccc(F)c5)c(Cl)c4)c3s2)C1` [GSK-192082A], the AC50 result in assay [1] and in assay [2] was “Phenotype: Inactive; Curve_Description: None” throughout.

Regarding `Cl.O=C(O[C@H]1CN[C@H](C#Cc2cc3ncnc(Nc4ccc5c(cnn5Cc5ccccc5)c4)c3s2)C1)N1CCOCC1` [GSK-200398A], the values for the AC50 entry in assay [1] and in assay [2] (read-out: AC50) were “Phenotype: Inactive; Curve_Description: None” and 18.3 µM, respectively.

Consider `COc1cc2ncn(-c3cc(OCCc4ccccc4)c(C(N)=O)s3)c2cc1OC` [GSK-204925A], for which the AC50 result in assay [1] and in assay [2] was “Phenotype: Inactive; Curve_Description: None” throughout.

For the compound `COc1cc2ncn(-c3cc(O[C@@H](C)c4ccccc4Cl)c(C(N)=O)s3)c2cc1OC` [GSK-237700A], the AC50 entry in assay [1] and in assay [2] was “Phenotype: Inactive; Curve_Description: None” throughout.

As to `COc1cc2ncn(-c3cc(O[C@H](C)c4ccccc4Cl)c(C(N)=O)s3)c2cc1OC` [GSK-237701A], the AC50 is 3.66 µM in assay [1] (read-out: AC50) and “Phenotype: Inactive; Curve_Description: None” in assay [2].

For the compound `CN(C)C(=O)O[C@@H]1CN[C@@H](C#Cc2cc3ncnc(Nc4ccc(OCc5cccc(F)c5)c(Cl)c4)c3s2)C1` [GSK-238063A], the AC50 result in assay [1] was “Phenotype: Inactive; Curve_Description: None”; in assay [2] (read-out: AC50) it was 32.6 µM.

For the compound `O=C(O)C(F)(F)F.O=C(O[C@H]1CN[C@H](C#Cc2cc3ncnc(Nc4ccc(Cc5ccccc5)cc4)c3s2)C1)N1CCOCC1` [GSK-238583A], the AC50 is 23.1 µM in assay [1] (read-out: AC50) and “Phenotype: Inactive; Curve_Description: None” in assay [2].

As for `CCn1c(-c2nonc2N)nc2cnc(Oc3cccc(NC(=O)c4ccc(N(C)C)cc4)c3)cc21` [GSK-248233A], the AC50 result in assay [1] was “Phenotype: Inactive; Curve_Description: None”; in assay [2] (read-out: AC50), 1.03 µM.

For the compound `O=C(O)C(F)(F)F.O=C(O[C@H]1CN[C@H](C#Cc2cc3ncnc(Nc4ccc5c(ccn5Cc5cc(F)ccc5F)c4)c3s2)C1)N1CCOCC1` [GSK-259178A], the AC50 result in assay [1] and in assay [2] was “Phenotype: Inactive; Curve_Description: None” in each case.

For `CCn1c(-c2nonc2N)nc2cnc(Oc3cccc(NC(=O)c4ccc(OCCN5CCOCC5)cc4)c3)cc21.Cl` [GSK-269962B], the AC50 result in assay [1] and in assay [2] was “Phenotype: Inactive; Curve_Description: None” in each case.

As for `CC1=C(C(=O)Nc2ccc3[nH]ncc3c2)C(c2ccc3ccccc3c2)CC(=O)N1` (centres undefined) [GSK-270822A], the AC50 entry in assay [1] is “Phenotype: Inactive; Curve_Description: None”; in assay [2] (read-out: AC50), 41.1 µM.

Regarding `CC1=C(C(=O)Nc2ccc3[nH]ncc3c2)C(c2ccc(Cl)c(Cl)c2)CC(=O)N1` (centres undefined) [GSK-299115A], the AC50 result in assay [1] and in assay [2] was “Phenotype: Inactive; Curve_Description: None” in each case.
